Tests used:
fibrillar Aβ aggregates = fibrillar Aβ aggregates (Homo sapiens, UniProt P05067); settings: Mathis et al. 1997; read-out: inhibition constants (Ki) for binding to fibrillar Aβ aggregates; cited from earlier work
Aβ plaques = experiment: Film autoradiography of postmortem AD brain sections; format: binding, human
Method: [^18F]tracers: Brain sections from AD subjects were obtained by freezing the brain in powdered dry ice and cut into 20 micrometer-thick sections. The sections were incubated with [^18F]tracers (200,000-250,000 cpm/200 μl) for 1 hr at room temperature. The sections were then dipped in saturated Li2CO3 in 40% EtOH (two two-minute washes) and washed with 40% EtOH (one two-minute wash) followed by rinsing with water for 30 sec. After drying, the ^18F-labeled sections were exposed to Kodak MR film overnight.

[1] = target: amyloid plaques in AD brain homogenates (Homo sapiens, UniProt P05067); settings: displacement of 125I-IMPY binding
Method: Values represent potencies (Ki) of compounds for displacement of ^125I-IMPY binding to amyloid plaques in AD brain homogenates.
Competition binding assays were carried out in 12×75 mm borosilicate glass tubes. The reaction mixture contained 50 μl of pooled AD brain homogenates (20-50 μg), 50 μl of [^125I]IMPY (0.04-0.06 nM diluted in PBS) and 50 μl of inhibitors (10^−5-10^10 M diluted serially in PBS containing 0.1% bovine serum albumin) in a final volume of 1 ml. Nonspecific binding was defined in the presence of 600 nM IMPY in the same assay tubes. The mixture was incubated at 37° C. for 2 h and the bound and the free radioactivity were separated by vacuum filtration through Whatman GF/B filters using a Brandel M-24R cell harvester followed by 2×3 ml washes of PBS at room temperature. Filters containing the bound 1-125 ligand were counted in a gamma counter (Packard 5000) with 70% counting efficiency. Under the assay conditions, the specifically bound fraction was less than 15% of the total radioactivity. The results of inhibition experiments were subjected to nonlinear regression analysis using equilibrium binding data analysis from which Ki values were calculated.

[2] = tested on: pooled AD and control brain tissue homogenates; experiment: Specific binding of [18F]2 to pooled AD and control brain tissue homogenates; set-up: species or system human
From the text: FIG. 8 depicts specific binding of [^18F]2 to pooled AD and control brain tissue homogenates. Gray and white matters were dissected from the cortical regions. […] The values presented are the mean±SEM of six measurements.

[3] = Organ distribution in normal ICR mice after iv injection of radiolabeled tracer; format: in vivo; settings: 5% EtOH in saline
Method: The mice (n=3 for each time point) were sacrificed by cervical dislocation at designated time-points post injection. The organs of interest were removed and weighed, and the radioactivity was counted with an automatic gamma counter. The percentage dose per organ was calculated by a comparison of the tissue counts to suitably diluted aliquots of the injected material. The total activity of the blood was calculated under the assumption that it is 7% of the total body weight. The % dose/g of samples was calculated by comparing the sample counts with the count of the diluted initial dose.

[4] = 2 min, second organ list r16-r25
[5] = 30 min, first organ list r6-r15
[6] = 30 min, second organ list r16-r25
[7] = 1 hr, second organ list r16-r25
[8] = 2 hr, second organ list r16-r25

fibrillar Aβ aggregates, sequence (P05067 672-711 limits assumed): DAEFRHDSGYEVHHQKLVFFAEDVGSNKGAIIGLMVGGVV
amyloid plaques in AD brain homogenates, sequence (P05067 672-711): as the sequence (P05067 672-711 limits assumed) above

## O=C(O)c1cc(/N=N/c2ccc(-c3ccc(/N=N/c4ccc(O)c(C(=O)O)c4)cc3)cc2)ccc1O [CG, chrysamine-G]
Fibrillar Aβ aggregates
  Ki: 370 nM

## CN(C)c1ccc(/C=C/c2ccc(OCCOCCOCCF)nc2)cc1 [Compound 2, (E)-2-(2-(2-(2-fluoroethoxy)ethoxy)ethoxy)-5-(4-dimethylaminostyryl)pyridine]
Aβ plaques
  autoradiography result: confirmed the specific binding related to the presence of Aβ plaques
[1]
  Ki: 2.5 ± 0.4 nM

## CN(C)c1ccc(/C=C/c2ccc(OCCOCCOCCF)nc2)cc1 [[^18F]2, (E)-2-(2-(2-(2-fluoroethoxy)ethoxy)ethoxy)-5-(4-dimethylaminostyryl)pyridine]
[2]; AD brain homogenates, gray matter
  specific binding: High specific binding
[2]; AD brain, white matter homogenates
  specific binding: Relatively low binding
[2]; control brain homogenates, grey or white matter
  specific binding: significantly lower specific binding
[3]; 2 min, first organ list r6-r15
  Biodistribution: Blood: 6.05 ± 0.33 % dose/g
  Biodistribution: Bone: 5.97 ± 0.56 % dose/g
  Biodistribution: Brain: 3.49 ± 0.58 % dose/g
  Biodistribution: Heart: 0.75 ± 0.14 % dose/g
  Biodistribution: Kidney: 6.38 ± 0.95 % dose/g
  Biodistribution: Liver: 24.90 ± 1.49 % dose/g
  Biodistribution: Lung: 1.07 ± 0.20 % dose/g
  Biodistribution: Muscle: 7.03 ± 1.30 % dose/g
  Biodistribution: Skin: 2.52 ± 0.24 % dose/g
  Biodistribution: Spleen: 0.43 ± 0.11 % dose/g
[3]; [4]
  Biodistribution: Blood: 3.04 ± 0.29 % dose/g
  Biodistribution: Bone: 1.49 ± 0.08 % dose/g
  Biodistribution: Brain: 7.77 ± 1.34 % dose/g
  Biodistribution: Kidney: 14.19 ± 2.34 % dose/g
  Biodistribution: Liver: 17.00 ± 0.69 % dose/g
  Biodistribution: Lung: 5.65 ± 0.89 % dose/g
  Biodistribution: Muscle: 0.62 ± 0.10 % dose/g
  Biodistribution: Skin: 0.59 ± 0.03 % dose/g
  Biodistribution: Spleen: 4.65 ± 0.76 % dose/g
[3]; [5]
  Biodistribution: Blood: 2.65 ± 0.22 % dose/g
  Biodistribution: Bone: 2.52 ± 0.34 % dose/g
  Biodistribution: Brain: 0.48 ± 0.07 % dose/g
  Biodistribution: Heart: 0.17 ± 0.03 % dose/g
  Biodistribution: Kidney: 1.68 ± 0.11 % dose/g
  Biodistribution: Liver: 9.26 ± 0.83 % dose/g
  Biodistribution: Lung: 0.30 ± 0.01 % dose/g
  Biodistribution: Muscle: 8.58 ± 0.26 % dose/g
  Biodistribution: Skin: 3.99 ± 0.34 % dose/g
  Biodistribution: Spleen: 0.15 ± 0.05 % dose/g
[3]; [6]
  Biodistribution: Blood: 1.33 ± 0.16 % dose/g
  Biodistribution: Bone: 0.63 ± 0.12 % dose/g
  Biodistribution: Brain: 1.03 ± 0.11 % dose/g
  Biodistribution: Heart: 1.28 ± 0.16 % dose/g
  Biodistribution: Kidney: 3.77 ± 0.36 % dose/g
  Biodistribution: Liver: 7.21 ± 0.69 % dose/g
  Biodistribution: Lung: 1.73 ± 0.17 % dose/g
  Biodistribution: Muscle: 0.75 ± 0.04 % dose/g
  Biodistribution: Skin: 0.93 ± 0.13 % dose/g
  Biodistribution: Spleen: 1.57 ± 0.51 % dose/g
[3]; 1 hr, first organ list r6-r15
  Biodistribution: Blood: 3.48 ± 0.47 % dose/g
  Biodistribution: Bone: 4.39 ± 0.40 % dose/g
  Biodistribution: Brain: 0.55 ± 0.10 % dose/g
  Biodistribution: Heart: 0.22 ± 0.03 % dose/g
  Biodistribution: Kidney: 1.96 ± 0.21 % dose/g
  Biodistribution: Liver: 10.52 ± 2.18 % dose/g
  Biodistribution: Lung: 0.35 ± 0.07 % dose/g
  Biodistribution: Muscle: 10.62 ± 2.59 % dose/g
  Biodistribution: Skin: 4.42 ± 0.65 % dose/g
  Biodistribution: Spleen: 0.13 ± 0.03 % dose/g
[3]; [7]
  Biodistribution: Blood: 1.80 ± 0.16 % dose/g
  Biodistribution: Bone: 1.13 ± 0.01 % dose/g
  Biodistribution: Brain: 1.28 ± 0.20 % dose/g
  Biodistribution: Heart: 1.66 ± 0.24 % dose/g
  Biodistribution: Kidney: 4.29 ± 0.52 % dose/g
  Biodistribution: Liver: 8.13 ± 1.42 % dose/g
  Biodistribution: Lung: 1.82 ± 0.31 % dose/g
  Biodistribution: Muscle: 0.95 ± 0.18 % dose/g
  Biodistribution: Skin: 1.06 ± 0.09 % dose/g
  Biodistribution: Spleen: 1.56 ± 0.17 % dose/g
[3]; 2 hr, first organ list r6-r15
  Biodistribution: Blood: 2.15 ± 0.25 % dose/g
  Biodistribution: Bone: 6.49 ± 0.08 % dose/g
  Biodistribution: Brain: 0.37 ± 0.08 % dose/g
  Biodistribution: Heart: 0.18 ± 0.08 % dose/g
  Biodistribution: Kidney: 0.96 ± 1.58 % dose/g
  Biodistribution: Liver: 6.86 ± 0.59 % dose/g
  Biodistribution: Lung: 0.20 ± 0.36 % dose/g
  Biodistribution: Muscle: 5.96 ± 0.06 % dose/g
  Biodistribution: Skin: 2.91 ± 0.16 % dose/g
  Biodistribution: Spleen: 0.10 ± 0.17 % dose/g
[3]; [8]
  Biodistribution: Blood: 1.08 ± 0.06 % dose/g
  Biodistribution: Bone: 1.64 ± 0.50 % dose/g
  Biodistribution: Brain: 0.84 ± 0.08 % dose/g
  Biodistribution: Heart: 1.32 ± 0.33 % dose/g
  Biodistribution: Kidney: 2.19 ± 0.36 % dose/g
  Biodistribution: Liver: 4.96 ± 0.90 % dose/g
  Biodistribution: Lung: 0.98 ± 0.08 % dose/g
  Biodistribution: Muscle: 0.52 ± 0.08 % dose/g
  Biodistribution: Skin: 0.68 ± 0.16 % dose/g
  Biodistribution: Spleen: 1.14 ± 0.18 % dose/g

From patent US8840866B2, “Styrylpyridine derivatives and their use for binding and imaging amyloid plaques” (The Trustees of the University of Pennsylvania, priority 2006, dated 2014)
